Residue numbers refer to the chain shown, from its start.
Assays:
Homo sapiens [1] = organism: Homo sapiens; experiment: Ratio of IC50 for human dihydrofolate dehydrogenase Y147C mutant to IC50 for human wild type dihydrofolate dehydrogenase
Homo sapiens [2] = organism: Homo sapiens; experiment: Ratio of IC50 for human dihydrofolate dehydrogenase Y147A mutant to IC50 for human wild type dihydrofolate dehydrogenase
[3] = tested on: T1, Dihydroorotate dehydrogenase (quinone), mitochondrial (Plasmodium falciparum (isolate 3D7)), Q08210 [C276Y]; experiment: Inhibition of Plasmodium falciparum […] dehydrogenase C276Y mutant expressed in Escherichia coli BL21(DE3) using […] as substrate at 100 uM by DCIP-based colorimetric analysis
T1 sequence (whole entry): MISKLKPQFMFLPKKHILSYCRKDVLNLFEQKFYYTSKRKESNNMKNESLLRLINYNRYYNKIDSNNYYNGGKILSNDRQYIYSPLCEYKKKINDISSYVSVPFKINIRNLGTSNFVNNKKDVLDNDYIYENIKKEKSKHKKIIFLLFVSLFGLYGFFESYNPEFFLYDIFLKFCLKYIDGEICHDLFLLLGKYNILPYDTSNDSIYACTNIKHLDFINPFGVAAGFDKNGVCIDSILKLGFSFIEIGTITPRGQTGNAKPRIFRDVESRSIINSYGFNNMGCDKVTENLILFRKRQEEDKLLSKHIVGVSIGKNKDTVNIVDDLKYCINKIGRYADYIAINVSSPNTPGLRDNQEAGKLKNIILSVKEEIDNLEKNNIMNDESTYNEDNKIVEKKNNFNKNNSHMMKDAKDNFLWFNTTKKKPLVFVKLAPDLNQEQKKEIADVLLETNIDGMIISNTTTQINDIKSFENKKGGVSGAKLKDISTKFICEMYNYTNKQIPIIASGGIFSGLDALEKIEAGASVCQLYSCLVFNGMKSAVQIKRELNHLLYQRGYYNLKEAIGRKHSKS

Homo sapiens [4] = organism: Homo sapiens; experiment: Ratio of IC50 for human […] dehydrogenase H56A mutant to IC50 for human wild type […] dehydrogenase
[5] = tested on: T2, Dihydroorotate dehydrogenase (quinone), mitochondrial (Plasmodium falciparum (isolate 3D7)), Q08210 [H185A]; experiment: Inhibition of Plasmodium falciparum […] dehydrogenase H185A mutant expressed in Escherichia coli BL21(DE3) using […] as substrate at 100 uM by DCIP-based colorimetric analysis
T2 sequence (whole entry): T1 sequence (whole entry) with H185A, Y276C

[6] = tested on: T3, Dihydroorotate dehydrogenase (quinone), mitochondrial (Plasmodium falciparum (isolate 3D7)), Q08210 [C276A]; experiment: Inhibition of Plasmodium falciparum […] dehydrogenase C276A mutant expressed in Escherichia coli BL21(DE3) using […] as substrate at 100 uM by DCIP-based colorimetric analysis
T3 sequence (whole entry): T1 sequence (whole entry) with Y276A

[7] = tested on: T4, Dihydroorotate dehydrogenase (quinone), mitochondrial (Plasmodium falciparum (isolate 3D7)), Q08210 [C276F]; experiment: Inhibition of Plasmodium falciparum […] dehydrogenase C276F mutant expressed in Escherichia coli BL21(DE3) using […] as substrate at 100 uM by DCIP-based colorimetric analysis
T4 sequence (whole entry): T1 sequence (whole entry) with Y276F

Homo sapiens [8] = organism: Homo sapiens; experiment: Ratio of IC50 for human dihydrofolate dehydrogenase Y147F mutant to IC50 for human wild type dihydrofolate dehydrogenase

`CCc1cc(O)n2nc(SCc3cc(Cl)ccc3Cl)nc2n1` was tested, and the Ratio IC50 (Homo sapiens [1]) was 9, the Ratio IC50 (Homo sapiens [2]) was 16 and the inhibition [3] was < 50%. The Ratio IC50 (Homo sapiens [4]) was 17, the inhibition [5] was < 50% and the inhibition [6] was < 50%. For the same compound, the inhibition [7] was < 50% and the Ratio IC50 (Homo sapiens [8]) was 1.9.

— ChEMBL document CHEMBL2177061, “Factors influencing the specificity of inhibitor binding to the human and malaria parasite dihydroorotate dehydrogenases” (J Med Chem, 2012)
